This passage reports TGI results from PubChem BioAssay (NCI).

Some test systems named below: OVCAR-3 ovarian; NCI/ADR-RES ovarian; NCI-H522 lung; SK-OV-3 ovarian; COLO 205 colon; PC-3 prostate; HL-60(TB) leukemia; MOLT-4 leukemia; SF-268 CNS; OVCAR-4 ovarian.
Assay in all cases: NCI-60 cell line screen, 48 h

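In this assay, cells in 96-well plates receive the compound at five concentrations for 48 hours. Endpoints are linearly interpolated between the surrounding concentrations. Definition used: TGI = concentration required for complete inhibition of growth.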

Take `NCCCCNCCCN1CCOC1=O`: the TGI in the experiment with OVCAR-3 ovarian, in the experiment with NCI/ADR-RES ovarian, in the experiment with NCI-H522 lung, in the experiment on SK-OV-3 ovarian, in the experiment on COLO 205 colon and with PC-3 prostate was over 100 µM each time. In addition, the TGI in the experiment on HL-60(TB) leukemia, in the experiment on MOLT-4 leukemia and in the experiment on SF-268 CNS was over 100 µM in each case.

With `Cc1ccc(C)c(COCCOCn2cc(N3CCOCC3)c(=O)[nH]c2=O)c1`, the TGI in the experiment with NCI/ADR-RES ovarian, in the experiment on NCI-H522 lung, in the experiment on SK-OV-3 ovarian, in the experiment on COLO 205 colon, with PC-3 prostate and in the experiment on HL-60(TB) leukemia was over 100 µM throughout. The TGI in the experiment on MOLT-4 leukemia and in the experiment on SF-268 CNS was over 100 µM in each case.

Turning to `Cc1nc2c(=O)n(-c3ccccc3)c(=O)n(-c3ccccc3)c2o1`, the TGI in the experiment on OVCAR-3 ovarian, in the experiment with NCI/ADR-RES ovarian, in the experiment with NCI-H522 lung, in the experiment with SK-OV-3 ovarian, with COLO 205 colon and with PC-3 prostate was over 100 µM throughout. The TGI in the experiment on OVCAR-4 ovarian, with MOLT-4 leukemia and in the experiment with SF-268 CNS was over 100 µM each time.

Consider `COc1cc(N=Nc2ccc(OC)c(S(=O)(=O)O)c2)c(C)cc1N=Nc1ccc(/C=C/c2ccc(N=[N+]([O-])c3ccc(/C=C/c4ccc(N=Nc5cc(C)c(N=Nc6ccc(OC)c(S(=O)(=O)O)c6)cc5OC)cc4S(=O)(=O)O)c(S(=O)(=O)O)c3)cc2S(=O)(=O)O)c(S(=O)(=O)O)c1`, for which the TGI in the experiment on OVCAR-3 ovarian, in the experiment on NCI/ADR-RES ovarian, with NCI-H522 lung, in the experiment with SK-OV-3 ovarian, with COLO 205 colon and with OVCAR-4 ovarian was over 100 µM each time. Also, the TGI in the experiment with HL-60(TB) leukemia, with MOLT-4 leukemia and with SF-268 CNS was over 100 µM in each case.

In the case of `CN1C2=Nc3n(c4ccccc4[n+]3C)CN2c2ccccc21`, the TGI was 34.7 µM in the experiment on OVCAR-3 ovarian; over 100 µM in the experiment with NCI/ADR-RES ovarian; 65.4 µM in the experiment with NCI-H522 lung; over 100 µM in the experiment with SK-OV-3 ovarian; 41.9 µM with COLO 205 colon; over 100 µM in the experiment with PC-3 prostate. Besides, the TGI in the experiment on HL-60(TB) leukemia is over 100 µM; in the experiment with MOLT-4 leukemia, over 100 µM; in the experiment on SF-268 CNS, 44.1 µM.

`CCCn1cc2c3c(cccc31)C1C=C(C)CN(C)C1C2` (stereo unspecified): the TGI in the experiment on OVCAR-3 ovarian stood at 52.6 µM; in the experiment on NCI/ADR-RES ovarian, 58.8 µM; in the experiment with NCI-H522 lung, 57.1 µM; in the experiment with SK-OV-3 ovarian, 71.4 µM; in the experiment on COLO 205 colon, 33.3 µM; with OVCAR-4 ovarian, 29.8 µM. Further, the TGI in the experiment on HL-60(TB) leukemia came out at 5.56 µM; with MOLT-4 leukemia it was 40.2 µM; with SF-268 CNS it was 47.2 µM.

Turning to `C=C1C[C@@H]2O[C@H]3[C@H]4[C@@H](C[C@@H](C)[C@@H](OC(C)=O)[C@H]42)[C@@H](C)CO[C@@]3(C)[C@H](OC(=O)CCCCCCC)CC1=O`, the TGI in the experiment with OVCAR-3 ovarian came out at 32 µM; in the experiment with NCI/ADR-RES ovarian, 35.5 µM; with NCI-H522 lung, 42.6 µM; in the experiment with COLO 205 colon it was 27.3 µM; in the experiment with PC-3 prostate, 22.5 µM; in the experiment with MOLT-4 leukemia, 40.8 µM. Besides, the TGI in the experiment with SF-268 CNS amounted to 36.9 µM.

`COc1ccc(C2c3cc4c(cc3OC(Nc3ccccc3)C2C)OCO4)cc1` (stereo unspecified): the TGI in the experiment with OVCAR-3 ovarian is over 100 µM; with NCI-H522 lung it was over 100 µM; with SK-OV-3 ovarian, over 100 µM; in the experiment on COLO 205 colon, over 100 µM; with PC-3 prostate it was over 100 µM; in the experiment on HL-60(TB) leukemia, 59.3 µM. In addition, the TGI in the experiment with MOLT-4 leukemia and in the experiment with SF-268 CNS was over 100 µM in each case.

In the case of `O=c1c2cc([N+](=O)[O-])ccc2oc2nc3n(c(=O)c12)CCCS3`, the TGI in the experiment with OVCAR-3 ovarian, in the experiment on NCI/ADR-RES ovarian, with NCI-H522 lung, in the experiment on SK-OV-3 ovarian, in the experiment on COLO 205 colon and with PC-3 prostate was over 100 µM in each case. The TGI in the experiment on OVCAR-4 ovarian, with MOLT-4 leukemia and in the experiment with SF-268 CNS was over 100 µM throughout.

On to `COc1cc2c(c(OC)c1)[C@H](C)N(Cc1ccccc1)C(C)C2` (stereo partly specified), for which the TGI in the experiment with NCI-H522 lung was over 100 µM; in the experiment on SK-OV-3 ovarian, over 100 µM; with COLO 205 colon, over 100 µM; in the experiment on PC-3 prostate, over 100 µM; in the experiment on HL-60(TB) leukemia, 24.8 µM; with MOLT-4 leukemia, over 100 µM. In the experiment with SF-268 CNS, the TGI was over 100 µM.

`C=C(C)[C@H]1CC23C(=O)[C@@](C)(C[C@H]2C1(C)C)C(=O)C(C(=O)C(C)C)=C3O`: the TGI in the experiment with OVCAR-3 ovarian worked out at 37.7 µM; in the experiment on NCI/ADR-RES ovarian, 27.8 µM; with NCI-H522 lung, 36.8 µM; in the experiment with COLO 205 colon, 23.1 µM; with PC-3 prostate it was 33 µM; in the experiment on OVCAR-4 ovarian, 34.9 µM. For the same molecule, the TGI in the experiment on HL-60(TB) leukemia stood at 41.6 µM; in the experiment on MOLT-4 leukemia, 19 µM; in the experiment with SF-268 CNS, 50.4 µM.

In the case of `O=C(NC(C(F)(F)F)(C(F)(F)F)P(=O)(Cc1ccccc1)Cc1ccccc1)C(C(F)(F)F)C(F)(F)F`, the TGI in the experiment on OVCAR-3 ovarian was over 100 µM; in the experiment on NCI/ADR-RES ovarian, 44 µM; with NCI-H522 lung, 60.4 µM; in the experiment with SK-OV-3 ovarian, over 100 µM; with COLO 205 colon, 38 µM; with PC-3 prostate, 49 µM. The figures for the TGI in the experiment with HL-60(TB) leukemia, in the experiment with MOLT-4 leukemia and in the experiment on SF-268 CNS were 71.3 µM, 55.1 µM and 59.4 µM, respectively.

For the molecule `CN(C)CCNCCCNc1c2ccccc2nc2cccc([N+](=O)[O-])c12`, the TGI was 0.0466 µM with OVCAR-3 ovarian; under 0.0133 µM in the experiment with NCI-H522 lung; 0.26 µM in the experiment on SK-OV-3 ovarian; 0.0245 µM in the experiment on COLO 205 colon; 0.0609 µM in the experiment on PC-3 prostate; 0.0208 µM in the experiment on OVCAR-4 ovarian. Moreover, the TGI was 0.0247 µM in the experiment with HL-60(TB) leukemia, under 0.0192 µM in the experiment on MOLT-4 leukemia and 0.105 µM with SF-268 CNS.

On to `c1cncc(CSc2nc3ccccc3nc2-c2cccs2)c1`, for which the TGI in the experiment on OVCAR-3 ovarian was 83.3 µM; in the experiment on NCI-H522 lung, over 100 µM; in the experiment on COLO 205 colon, over 100 µM; in the experiment with OVCAR-4 ovarian it was over 100 µM; in the experiment with HL-60(TB) leukemia, 47.9 µM; in the experiment with MOLT-4 leukemia it was 98.7 µM. For the same molecule, in the experiment on SF-268 CNS, the TGI was over 100 µM.

Turning to `O=C(c1ccco1)N(C(=O)N1CCC(c2ccccc2)CC1)c1ccccc1`, the TGI in the experiment with OVCAR-3 ovarian is over 100 µM; in the experiment with NCI/ADR-RES ovarian it was 91 µM; in the experiment on SK-OV-3 ovarian, over 100 µM; in the experiment with COLO 205 colon it was over 100 µM; with PC-3 prostate it was over 100 µM; in the experiment with HL-60(TB) leukemia it was 65.9 µM. Moreover, the TGI in the experiment with MOLT-4 leukemia is 54.2 µM; in the experiment on SF-268 CNS, over 100 µM.
